Results on 16 compounds are retold here after publication PMC10165932, “Tripeptides conjugated with thiosemicarbazones: new inhibitors of tyrosinase for cosmeceutical use” (Journal of Enzyme Inhibition and Medicinal Chemistry, 2023).

Values joined by “and” are separate entries in the source; they are usually repeats but may differ in a detail not shown here. Equal values may be shown once. Read-outs that look alike come from different tables or passages of the source. Where a SMILES comes first, the peptide text is derived from it.

The test system of assay [1] is B16F0 murine melanoma cell line. Put plainly: cells. Type of assay: cell-based. Particulars: for % Of melanogenesis inhibition at a specific inhibitor concentration / inhibition at 10 µM / inhibition at 40 µM: B16F0, 48 h; for inhibition at 10 µM / inhibition at 40 µM: read-out: % Of melanogenesis inhibition at a specific inhibitor concentration. The method, then:
The effect of the synthetic compounds on melanogenesis inhibition was performed in B16F0 murine melanoma cell line. The mouse model of human skin is often employed in skin biology and cancer research due to numerous similarities.[62] B16F0 murine melanoma cell line shares most of the melanogenesis with human melanocytes. Therefore, it is the proper model for screening the effect of potential inhibitors on melanogenesis.[63]

Assay [2] deals with T1, mushroom tyrosinase (Agaricus bisporus, UniProt C7FF04). Put plainly: Tyrosinase inhibition assay (diphenolase activity, L-DOPA substrate). Format: biochemical. Conditions: for IC50 / tyrosinase inhibition (in words): diphenolase activity; for IC50: L-DOPA 5 mM; for tyrosinase inhibition (in words): tested range of concentrations. Here is the method: The tyrosinase enzymatic assay was performed according to the protocol described previously in our papers[46–48] using L-3,4-dihydroxyphenylalanine (L-DOPA) (Sigma-Aldrich, Germany) as a substrate. L-DOPA was dissolved in an aqueous 0.15 mM phosphoric(V) acid solution, preventing its oxidation. […] Tyrosinase powder (Sigma-Aldrich, Germany) was dissolved in the assay buffer to obtain a concentration of 50,000 units/mL. This stock solution was divided into 50 μL aliquots, each one containing 2500 units of tyrosinase, and stored at −80 °C. Shortly before the assay, one of the aliquots was reconstituted in the assay buffer up to 3000 μL. First, 10 μL of the diluted enzyme solution was preincubated with samples at various concentrations for 5 min at 25 °C. Afterwards, 20 μL of L-DOPA solution was added.
The screening of tyrosinase activity of the synthetic compounds was performed according to the procedure previously reported in our articles.[46–48] As reported in most of the research dealing with tyrosinase inhibition, we employed mushroom tyrosinase, due to the lack of information and the limited availability of human tyrosinase.[59]^,[60] All the compounds were evaluated at different concentrations after incubation with tyrosinase in solution for 5 min at room temperature. Afterwards, the substrate L-DOPA was added to start the enzymatic reaction. The absorbance provided by the colourful derivative, dopachrome, was measured every 5 s for 10 min in order to monitor the progress of the reaction over time. […] (1) % of ENZactivity=Sampleslope/ECslope×100

Assay [3] relates to B16F0 murine melanoma cell line. The assay is described as follows: cells. Conditions: 48 h. Format: cell-based. The method, then: B16F0 murine melanoma cell line was cultured in DMEM (Biowest, Nuaillé, France) medium supplemented with 100 U/ml streptomycin (Sigma-Aldrich, Taufkirchen, Germany), 100 U/ml penicillin (Sigma-Aldrich, Taufkirchen, Germany), and 10% foetal bovine serum (Sigma-Aldrich, Taufkirchen, Germany). Cells were maintained in 5% CO2 at 37 °C. Cells viability was estimated by MTT colorimetric assay as described by Bellei et al.[51] B16 cells were seeded into 96-well plate (4 × 10^3 cells/well) and incubated in the presence of the investigated compounds at various concentrations (1000, 400, 100, 40, 10, 1, 0.1 μM) for 48 h. Kojic acid and DMSO were used as controls. MTT was added into wells (0.625 mg/ml, Sigma-Aldrich, Taufkirchen, Germany) for the last 4 h. Then lysing buffer was added to dissolve insoluble formazan. The absorbance was measured (λ = 570 nm) using Thermo Lab Multiscan RC microplate reader.

The target in assay [4] is T1, mushroom tyrosinase. Conditions: cited from earlier work; for tyrosinase inhibition (in words): previous paper.
Assay [5] has as its system B16F0 murine melanoma cell line. Set-up: method as in PMID 30248509. Particulars: previous paper; read-out: IC50 value for melanogenesis; cited from earlier work.
The mark [6] stands for this setting: n = 3, read-out: The maximum percentage of inhibition reached for poor inhibitors.
Setting [7] is: Mus musculus, B16F0, n = 3, read-out: IC50 of melanin production.
Where [8] appears, read: Mus musculus, B16F0, MTT, n = 3, read-out: IC50 of cell proliferation.

T1 sequence (C7FF04 1-392): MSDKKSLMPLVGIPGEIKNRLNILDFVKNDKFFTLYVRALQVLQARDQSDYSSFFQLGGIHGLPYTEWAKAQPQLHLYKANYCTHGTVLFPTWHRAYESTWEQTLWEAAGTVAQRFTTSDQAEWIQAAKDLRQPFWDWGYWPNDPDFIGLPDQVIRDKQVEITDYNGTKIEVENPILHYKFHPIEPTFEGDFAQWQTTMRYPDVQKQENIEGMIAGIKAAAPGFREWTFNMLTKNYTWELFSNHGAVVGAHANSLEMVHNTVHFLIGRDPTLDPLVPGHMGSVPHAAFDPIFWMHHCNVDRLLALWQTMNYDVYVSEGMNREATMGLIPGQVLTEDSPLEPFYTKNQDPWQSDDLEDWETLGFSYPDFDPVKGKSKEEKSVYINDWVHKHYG

Take `CC(C(=O)N[C@@H](Cc1ccccc1)C(=O)N[C@@H](Cc1ccccc1)C(=O)N[C@@H](Cc1ccc(O)cc1)C(=O)O)c1cccc(C(=NNC(N)=S)c2ccccc2)c1` (mixture of isomers) [Compound 10, TSC2-FFY-OH]: the figures for the “% Of melanogenesis inhibition at a specific inhibitor concentration” value (from here on “% Of melanogenesis inhibition”) in assay [1] (10 µM) and in assay [1] (40 µM) were 0% and 4%, respectively. The results for the IC50 in assay [1] (24 h) and in assay [3] were 146 µM and 77.4 µM, respectively. For the same compound, the inhibition at 250 µM on mushroom tyrosinase [2] (setting [6]) is 45%.
Regarding `CC(C(=O)N[C@@H](Cc1ccccc1)C(=O)N[C@@H](Cc1ccc(O)cc1)C(=O)N[C@@H](Cc1ccc(O)cc1)C(=O)O)c1cccc(C(=NNC(N)=S)c2ccccc2)c1` (mixture of isomers) [Compound 11, TSC2-FYY-OH], the “% Of melanogenesis inhibition” value in assay [1] (10 µM) and in assay [1] (40 µM) was 0% in each case. For the same compound, the inhibition at 250 µM at mushroom tyrosinase [2] (setting [6]) was 36%. The compound further displayed an IC50 in assay [3] of 77.2 µM.
Turning to `CC(C(=O)N[C@@H](Cc1ccccc1)C(=O)N[C@@H](Cc1c[nH]c2ccccc12)C(=O)N[C@@H](Cc1ccc(O)cc1)C(=O)O)c1cccc(C(=NNC(N)=S)c2ccccc2)c1` (mixture of isomers) [Compound 12, TSC2-FWY-OH], the figures for the “% Of melanogenesis inhibition” value in assay [1] (10 µM) and in assay [1] (40 µM) were 0% and 3%, respectively. The IC50 in assay [1] (24 h) came to 89.9 µM; in assay [3] it was 63.2 µM. Besides, the inhibition at 250 µM at mushroom tyrosinase [2] (setting [6]) is 50%.
For `CC(C(=O)O)c1cccc(/C(=N\NC(N)=S)c2ccccc2)c1` (centres unmarked) [Compound 2, thiosemicarbazone of ketoprofen], the inhibition at 10 µM in assay [1] (Mus musculus, 10 µM) was 28%. In addition, the inhibition at 40 µM in assay [1] (Mus musculus, 40 µM) amounted to 77%. Further, the IC50 was 19.8 µM in assay [1] (setting [7]), > 150 µM at mushroom tyrosinase [2] (n = 3) and 71.5 µM in assay [3] (setting [8]). The inhibition at 150 µM on mushroom tyrosinase [2] (at 150 μM, n = 3, read-out: The maximum percentage of inhibition reached for poor inhibitors) worked out at 34%. Besides, on mushroom tyrosinase [2], the “tyrosinase inhibition (in words)” value was “no significant inhibition towards tyrosinase”.
`CC(=O)N[C@@H](Cc1ccccc1)C(=O)N[C@@H](Cc1ccccc1)C(=O)N[C@@H](Cc1ccc(O)cc1)C(=O)O` [Compound 4, Ac-FFY-OH] (Ac-Phe-Phe-Tyr-OH): the IC50 on mushroom tyrosinase [4] (tyrosinase inhibition, read-out: IC50 found in the literature) is 240 µM; in assay [1] (24 h) it was 246 µM; in assay [3], 106 µM. In addition, the “% Of melanogenesis inhibition” value in assay [1] (10 µM) is reported as 1%; in assay [1] (40 µM), 3%. In addition, the “tyrosinase inhibition (in words)” value at mushroom tyrosinase [2] was “no significant inhibition was observed in the tested range of concentrations”.
Consider `CC(=O)N[C@@H](Cc1ccccc1)C(=O)N[C@@H](Cc1ccc(O)cc1)C(=O)N[C@@H](Cc1ccc(O)cc1)C(=O)O` [Compound 5, Ac-FYY-OH] (Ac-Phe-Tyr-Tyr-OH), for which the “% Of melanogenesis inhibition” value turned out to be 0% in assay [1] (10 µM) and 2% in assay [1] (40 µM). In addition, the IC50 in assay [1] (24 h) amounted to 175 µM; in assay [3], 96.6 µM. The “tyrosinase inhibition (in words)” value at mushroom tyrosinase [2] is “no significant inhibition was observed in the tested range of concentrations”.
On the same counts, the results for `CC(=O)N[C@@H](Cc1ccccc1)C(=O)N[C@@H](Cc1c[nH]c2ccccc12)C(=O)N[C@@H](Cc1ccc(O)cc1)C(=O)O` [Compound 6, Ac-FWY-OH] (Ac-Phe-Trp-Tyr-OH) are 0%, 4%, 141 µM, 81 µM and “no significant inhibition was observed in the tested range of concentrations”.
As to `NC(=S)N/N=C/c1ccc(C(=O)N[C@@H](Cc2ccccc2)C(=O)N[C@@H](Cc2ccccc2)C(=O)N[C@@H](Cc2ccc(O)cc2)C(=O)O)cc1` [Compound 7, TSC1-FFY-OH], the “% Of melanogenesis inhibition” value is 1% in assay [1] (10 µM) and 10% in assay [1] (40 µM). Besides, the IC50 is 138 µM in assay [1] (24 h), > 150 µM on mushroom tyrosinase [2] (n = 3) and 72.8 µM in assay [3]. Also, the inhibition at 250 µM at mushroom tyrosinase [2] (setting [6]) was found to be 77%.
As to `NC(=S)N/N=C/c1ccc(C(=O)N[C@@H](Cc2ccccc2)C(=O)N[C@@H](Cc2ccc(O)cc2)C(=O)N[C@@H](Cc2ccc(O)cc2)C(=O)O)cc1` [Compound 8, TSC1-FYY-OH], the “% Of melanogenesis inhibition” value in assay [1] (10 µM) was 3%; in assay [1] (40 µM) it was 12%. Moreover, the IC50 in assay [1] (24 h) was 158 µM; at mushroom tyrosinase [2] (n = 3), 6.5 µM and 6.57 µM; in assay [3] it was 99 µM.
For `NC(=S)N/N=C/c1ccc(C(=O)N[C@@H](Cc2ccccc2)C(=O)N[C@@H](Cc2c[nH]c3ccccc23)C(=O)N[C@@H](Cc2ccc(O)cc2)C(=O)O)cc1` [Compound 9, TSC1-FWY-OH], the “% Of melanogenesis inhibition” value in assay [1] (10 µM) was determined as 0%; in assay [1] (40 µM), 11%. Besides, the IC50 was 151 µM in assay [1] (24 h); 6.5 µM and 6.66 µM on mushroom tyrosinase [2] (n = 3); 77.1 µM in assay [3].
As to `C/C(=N\NC(N)=S)c1ccc(C(=O)N[C@@H](Cc2ccccc2)C(=O)N[C@@H](Cc2ccccc2)C(=O)N[C@@H](Cc2ccc(O)cc2)C(=O)O)cc1` [Compound 13, TSC3-FFY-OH], the “% Of melanogenesis inhibition” value in assay [1] (10 µM) worked out at 0%; in assay [1] (40 µM), 3%. Besides, the IC50 in assay [1] (24 h) is 162 µM; at mushroom tyrosinase [2] (n = 3), > 150 µM; in assay [3] it was 49.8 µM. Besides, the inhibition at 250 µM on mushroom tyrosinase [2] (setting [6]) was determined as 62%.
On to `C/C(=N\NC(N)=S)c1ccc(C(=O)N[C@@H](Cc2ccccc2)C(=O)N[C@@H](Cc2ccc(O)cc2)C(=O)N[C@@H](Cc2ccc(O)cc2)C(=O)O)cc1` [Compound 14, TSC3-FYY-OH], for which the “% Of melanogenesis inhibition” value in assay [1] (10 µM) is on record as 0%; in assay [1] (40 µM) it was 4%. Further, the values for the IC50 (in assay [1] (24 h); against mushroom tyrosinase [2] (n = 3); in assay [3]) were 145 µM, 26.1 ± 9 µM and 83.7 µM, respectively.
On the same counts, the results for `C/C(=N\NC(N)=S)c1ccc(C(=O)N[C@@H](Cc2ccccc2)C(=O)N[C@@H](Cc2c[nH]c3ccccc23)C(=O)N[C@@H](Cc2ccc(O)cc2)C(=O)O)cc1` [Compound 15, TSC3-FWY-OH] are 5%, 20%, 67.1 µM, 25.1 ± 2.5 µM and 67.5 µM.
As to `O=c1cc(CO)occ1O` [Kojic acid, reference compound], the inhibition at 10 µM in assay [1] (Mus musculus, 10 µM) amounted to 1%. The inhibition at 40 µM in assay [1] (Mus musculus, 40 µM) was 12%. Moreover, the IC50 is 121 µM in assay [1] (setting [7]) and 162 µM in assay [3] (setting [8]).
For `NC(=S)N/N=C(\Cc1ccccc1)c1ccccc1` [thiosemicarbazone of (E)-2-phenylacetophenone], in assay [5], the IC50 is < 2 µM. Also, the “tyrosinase inhibition (in words)” value on mushroom tyrosinase [4] is on record as “did not inhibit tyrosinase at all”.
Take `NC(=S)NN=C(c1ccccc1)c1ccccc1` [thiosemicarbazone of benzophenone]: in assay [5], the IC50 was < 2 µM. In addition, the “tyrosinase inhibition (in words)” value on mushroom tyrosinase [4] is “efficient tyrosinase inhibitor”.
